These results are taken from PubChem BioAssay AID1259407 (Chemical Carcinogenesis Research Information System (CCRIS), 2018).

Each structure is given as a SMILES string. Activity calls are given as the source filed them. How the calls were made is not given here.

For this data set, the system named is CCRIS mutagenicity, Ames/micronucleus/aberration tests. In words: CCRIS mutagenicity studies.
The mark [1] stands for this setting: Test System: AMES SALMONELLA TYPHIMURIUM, Strain/Indicator: TA98, Metabolic Activation: NONE, Method: PREINCUBATION
Setting [2] is: Test System: AMES SALMONELLA TYPHIMURIUM, Strain/Indicator: TA100, Metabolic Activation: NONE, Method: PREINCUBATION
Where [3] appears, read: Test System: AMES SALMONELLA TYPHIMURIUM, Strain/Indicator: TA100, Metabolic Activation: RAT, LIVER, S-9, AROCLOR 1254, Method: STANDARD PLATE.
Where [4] appears, read: Test System: AMES SALMONELLA TYPHIMURIUM, Strain/Indicator: TA1535, Metabolic Activation: NONE, Method: PREINCUBATION
Where [5] appears, read: Test System: AMES SALMONELLA TYPHIMURIUM, Strain/Indicator: TA1537, Metabolic Activation: NONE, Method: PREINCUBATION

`CN(C)CCCN1c2ccccc2Sc2ccc(Cl)cc21`: the mutagenic call by setting is: (End Point: IN VITRO CHROMOSOMAL ABERRATIONS, Test System: CHINESE HAMSTER OVARY CELLS, Metabolic Activation: NONE) “inactive; negative”; (End Point: IN VITRO CHROMOSOMAL ABERRATIONS, Test System: CHINESE HAMSTER OVARY CELLS, Metabolic Activation: RAT, LIVER, S-9, AROCLOR 1254) “inactive; negative”; (Test System: AMES SALMONELLA TYPHIMURIUM, Strain/Indicator: TA98, Metabolic Activation: HAMSTER, LIVER, S-9, AROCLOR 1254 (10%), Method: PREINCUBATION) “inactive; negative”; under setting [1], “inactive; negative”; (Test System: AMES SALMONELLA TYPHIMURIUM, Strain/Indicator: TA98, Metabolic Activation: NONE, Method: SPOT TEST) “inactive; negative”; (Test System: AMES SALMONELLA TYPHIMURIUM, Strain/Indicator: TA98, Metabolic Activation: NONE, Method: STANDARD PLATE) “inactive; negative”. The mutagenic call was “inactive; negative” (Test System: AMES SALMONELLA TYPHIMURIUM, Strain/Indicator: TA98, Metabolic Activation: RAT, LIVER, S-9, AROCLOR 1254 (10%), Method: PREINCUBATION); “inactive; negative” (Test System: AMES SALMONELLA TYPHIMURIUM, Strain/Indicator: TA98, Metabolic Activation: RAT, LIVER, S-9, AROCLOR 1254, Method: STANDARD PLATE); “inactive; negative” (Test System: AMES SALMONELLA TYPHIMURIUM, Strain/Indicator: TA100, Metabolic Activation: HAMSTER, LIVER, S-9, AROCLOR 1254 (10%), Method: PREINCUBATION); “inactive; negative” under setting [2]; “inactive; negative” (Test System: AMES SALMONELLA TYPHIMURIUM, Strain/Indicator: TA100, Metabolic Activation: NONE, Method: STANDARD PLATE); “inactive; negative” (Test System: AMES SALMONELLA TYPHIMURIUM, Strain/Indicator: TA100, Metabolic Activation: RAT, LIVER, S-9, AROCLOR 1254 (10%), Method: PREINCUBATION). The mutagenic call by setting is: under setting [3], “inactive; negative”; (Test System: AMES SALMONELLA TYPHIMURIUM, Strain/Indicator: TA1535, Metabolic Activation: HAMSTER, LIVER, S-9, AROCLOR 1254 (10%), Method: PREINCUBATION) “inactive; negative”; under setting [4], “inactive; negative”; (Test System: AMES SALMONELLA TYPHIMURIUM, Strain/Indicator: TA1535, Metabolic Activation: NONE, Method: STANDARD PLATE) “inactive; negative”; (Test System: AMES SALMONELLA TYPHIMURIUM, Strain/Indicator: TA1535, Metabolic Activation: RAT, LIVER, S-9, AROCLOR 1254 (10%), Method: PREINCUBATION) “inactive; negative”; (Test System: AMES SALMONELLA TYPHIMURIUM, Strain/Indicator: TA1535, Metabolic Activation: RAT, LIVER, S-9, AROCLOR 1254, Method: STANDARD PLATE) “inactive; negative”. Moreover, the mutagenic call (Test System: AMES SALMONELLA TYPHIMURIUM, Strain/Indicator: TA1537, Metabolic Activation: HAMSTER, LIVER, S-9, AROCLOR 1254 (10%), Method: PREINCUBATION) was “inactive; negative”; the mutagenic call under setting [5] was “inactive; negative”; the mutagenic call (Test System: AMES SALMONELLA TYPHIMURIUM, Strain/Indicator: TA1537, Metabolic Activation: NONE, Method: STANDARD PLATE) was “inactive; negative”; the mutagenic call (Test System: AMES SALMONELLA TYPHIMURIUM, Strain/Indicator: TA1537, Metabolic Activation: RAT, LIVER, S-9, AROCLOR 1254 (10%), Method: PREINCUBATION) was “active; positive”; the mutagenic call (Test System: AMES SALMONELLA TYPHIMURIUM, Strain/Indicator: TA1537, Metabolic Activation: RAT, LIVER, S-9, AROCLOR 1254, Method: STANDARD PLATE) was “inactive; negative”; the mutagenic call (Test System: CHINESE HAMSTER V-79, Strain/Indicator: V-79/6-THIOGUANINE, Metabolic Activation: NONE) was “inactive; negative”. Further, under “Test System: CHINESE HAMSTER V-79, Strain/Indicator: V-79/OUABAIN, Metabolic Activation: NONE”, the mutagenic call is “inactive; negative”.

As for `c1cc2c3c(c1)ccc1cccc(c13)C2`, the mutagenic call (Test System: AMES SALMONELLA TYPHIMURIUM, Strain/Indicator: TA98, Metabolic Activation: HAMSTER, LIVER, S-9, AROCLOR 1254 (30%), Method: PREINCUBATION) is “active; positive”; the mutagenic call under setting [1] was “inactive; negative”; the mutagenic call (Test System: AMES SALMONELLA TYPHIMURIUM, Strain/Indicator: TA98, Metabolic Activation: RAT, LIVER, S-9, AROCLOR 1254 (30%), Method: PREINCUBATION) was “inactive; negative”; the mutagenic call (Test System: AMES SALMONELLA TYPHIMURIUM, Strain/Indicator: TA100, Metabolic Activation: HAMSTER, LIVER, S-9, AROCLOR 1254 (30%), Method: PREINCUBATION) was “active; positive”; the mutagenic call under setting [2] is “inactive; negative”; the mutagenic call (Test System: AMES SALMONELLA TYPHIMURIUM, Strain/Indicator: TA100, Metabolic Activation: RAT, LIVER, S-9, AROCLOR 1254 (30%), Method: PREINCUBATION) was “active; positive”. For the same compound, under setting [3], the mutagenic call was “inactive; negative”.

For `CCCCCC(=O)OCC`, the mutagenic call is “inactive; negative” (Test System: AMES SALMONELLA TYPHIMURIUM, Strain/Indicator: TA97, Metabolic Activation: NONE, Method: PREINCUBATION); “inactive; negative” (Test System: AMES SALMONELLA TYPHIMURIUM, Strain/Indicator: TA97, Metabolic Activation: RAT, LIVER, S-9, AROCLOR 1254, Method: PREINCUBATION); “inactive; negative” (Test System: AMES SALMONELLA TYPHIMURIUM, Strain/Indicator: TA102, Metabolic Activation: NONE, Method: PREINCUBATION); “inactive; negative” (Test System: AMES SALMONELLA TYPHIMURIUM, Strain/Indicator: TA102, Metabolic Activation: RAT, LIVER, S-9, AROCLOR 1254, Method: PREINCUBATION).

Turning to `Cl[Si](Cl)Cl`, the mutagenic call by setting is: (Test System: Mouse lymphoma, Strain/Indicator: L5178Y (tk+/tk-), Metabolic Activation: None, Method: Suspension/plate) “inactive; negative”; (Test System: Mouse lymphoma, Strain/Indicator: L5178Y (tk+/tk-), Metabolic Activation: Rat, Liver, S-9, Aroclor 1254, Method: Suspension/plate) “inactive; negative”.

Take `CC1CCC(C(C)CS)CC1S` (stereo not given): the mutagenic call is “inactive; negative” (Test System: AMES SALMONELLA TYPHIMURIUM, Strain/Indicator: TA98, Metabolic Activation: HAMSTER, LIVER, S-9, AROCLOR 1254, Method: PREINCUBATION); “inactive; negative” under setting [1]; “inactive; negative” (Test System: AMES SALMONELLA TYPHIMURIUM, Strain/Indicator: TA98, Metabolic Activation: RAT, LIVER, S-9, AROCLOR 1254, Method: PREINCUBATION); “inactive; negative” (Test System: AMES SALMONELLA TYPHIMURIUM, Strain/Indicator: TA100, Metabolic Activation: HAMSTER, LIVER, S-9, AROCLOR 1254, Method: PREINCUBATION); “inactive; negative” under setting [2]; “inactive; negative” (Test System: AMES SALMONELLA TYPHIMURIUM, Strain/Indicator: TA100, Metabolic Activation: RAT, LIVER, S-9, AROCLOR 1254, Method: PREINCUBATION). In addition, the mutagenic call runs as follows: (Test System: AMES SALMONELLA TYPHIMURIUM, Strain/Indicator: TA1535, Metabolic Activation: HAMSTER, LIVER, S-9, AROCLOR 1254, Method: PREINCUBATION) “inactive; negative”; under setting [4], “inactive; negative”; (Test System: AMES SALMONELLA TYPHIMURIUM, Strain/Indicator: TA1535, Metabolic Activation: RAT, LIVER, S-9, AROCLOR 1254, Method: PREINCUBATION) “inactive; negative”; (Test System: AMES SALMONELLA TYPHIMURIUM, Strain/Indicator: TA1537, Metabolic Activation: HAMSTER, LIVER, S-9, AROCLOR 1254, Method: PREINCUBATION) “inactive; negative”; under setting [5], “inactive; negative”; (Test System: AMES SALMONELLA TYPHIMURIUM, Strain/Indicator: TA1537, Metabolic Activation: RAT, LIVER, S-9, AROCLOR 1254, Method: PREINCUBATION) “inactive; negative”.
